Earlier results in patent US20210135109A1, “ACCELERATED THERMAL CROSSLINKING OF PVDF-HFP VIA ADDITION OF ORGANIC BASES, AND THE USAGE OF CROSSLINKED PVDF-HFP AS GATE DIELECTRIC MATERIAL FOR OTFT DEVICES” (priority 2017, published 2021).

Details: water (measured in water unless otherwise specified)

pKa (25° C., 1 atm): 10.92 ± 0.10
SMILES: NCCCCCCN [HMDA, Hexamethylenediamine]
